Converted amounts (≈) assume the structure as drawn. Like-named read-outs stand apart in the source and are kept apart here.
Experiment: Measurement of the solubilization of active ingredients by amphiphiles
Type: physicochemical
Settings: thermodynamic from solid
Source text: After a rest time of one hour, excess (i.e. unsolubilized) active ingredient was removed by centrifuging. The resulting clear or opaque solution was subsequently analyzed for its active ingredient content by means of UV spectroscopy. The wavelengths of the UV spectroscopy measurement are compiled in table 1.

[1] = distilled water without polymer, room temperature, stirred 24 h, UV spectroscopy, read-out: Solubility of active ingredient, no polymer (noninventive)

| SMILES | solubility at 24 h [1] [µg/mL] | solubility at 24 h (water) [µg/mL] |
| --- | --- | --- |
| CN1C(C(=O)Nc2ccccn2)=C(O)c2ccccc2S1(=O)=O [Piroxicam] | 21 (≈ 63.4 µM) |  |
| NC(=O)N1c2ccccc2C=Cc2ccccc21 [Carbamazepine] | 140 (≈ 593 µM) |  |
| N#Cc1nn(-c2c(Cl)cc(C(F)(F)F)cc2Cl)c(N)c1[S+]([O-])C(F)(F)F (stereo not shown) [Fipronil] |  | 3 (≈ 6.86 µM) |
| COC(=O)N(OC)c1ccccc1COc1ccn(-c2ccc(Cl)cc2)n1 [Pyraclostrobin] | 22.5 (≈ 58 µM) |  |

— patent publication US8841382B2, “Hyperbranched polyethers/dendrimers for solubilzation of sparingly soluble active ingredients” (BASF SE, priority 2010, dated 2014)
